The values that follow come from patent publication US20260001928A1 (CORTERIA PHARMACEUTICALS, priority 2022, published 2026).

One experiment concerns the target T1, human CRF2a receptor (Homo sapiens, UniProt Q13324).
T1 construct: expressed in transfected cells; host or cells: TeloHEAC cells
T1 sequence (Q13324 1-411): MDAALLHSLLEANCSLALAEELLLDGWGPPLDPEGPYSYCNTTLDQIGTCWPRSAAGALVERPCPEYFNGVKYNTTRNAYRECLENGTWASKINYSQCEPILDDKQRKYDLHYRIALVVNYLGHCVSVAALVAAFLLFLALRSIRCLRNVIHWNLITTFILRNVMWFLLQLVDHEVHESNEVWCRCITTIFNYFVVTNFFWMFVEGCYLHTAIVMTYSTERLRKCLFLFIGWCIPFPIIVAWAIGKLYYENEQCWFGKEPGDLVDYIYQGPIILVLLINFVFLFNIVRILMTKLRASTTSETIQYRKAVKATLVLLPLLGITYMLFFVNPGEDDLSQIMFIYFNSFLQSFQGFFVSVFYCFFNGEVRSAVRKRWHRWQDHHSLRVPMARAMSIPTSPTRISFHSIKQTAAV
Description: Activity at human CRF2a receptor, cAMP functional assay in TeloHEAC cells. It is filed as cell-based. Particulars: TeloHEAC cells stably expressing human CRF2a receptor, relative to urocortin 2 (100 nM = 100%). The procedure, abridged: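 TeloHEAC cells stably expressing human CRF2a (10000 cells/well) were treated with 16-point 1:2 compound dilutions in HBSS/20 mM HEPES with IBMX for 30 min at 37° C. cAMP was read by HTRF (665/620 nm ratio). EC50 was the concentration giving 50% activation, with 100 nM urocortin 2 set as 100%.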

Another experiment addresses T2, CFR1R receptor (Homo sapiens, UniProt P34998).
T2 construct: host or cells: CHO-K1 (clone 2)
T2 sequence (P34998 24-415): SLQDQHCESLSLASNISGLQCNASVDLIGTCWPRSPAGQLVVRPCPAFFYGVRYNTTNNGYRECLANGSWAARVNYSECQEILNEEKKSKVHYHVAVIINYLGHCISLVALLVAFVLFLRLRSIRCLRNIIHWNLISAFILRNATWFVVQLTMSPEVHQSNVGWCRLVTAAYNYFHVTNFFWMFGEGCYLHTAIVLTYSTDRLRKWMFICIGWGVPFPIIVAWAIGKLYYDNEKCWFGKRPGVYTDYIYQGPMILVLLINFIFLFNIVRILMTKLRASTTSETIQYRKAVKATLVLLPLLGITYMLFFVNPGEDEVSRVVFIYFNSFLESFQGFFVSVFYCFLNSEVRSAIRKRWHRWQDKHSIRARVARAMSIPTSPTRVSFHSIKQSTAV
Description: Activity at anti-target CFR1R receptor, cAMP assay in CRF1R-overexpression CHO-K1 cells. Particulars: 100% = Sauvagine at 100 nM; for EC50: cAMP. It is filed as cell-based. In short, it runs like this:
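The method mirrors that used with TeloHAEC cells. Here, thawed clone 2 cells seeded at 4000 cells/well are tested, and 100 nM Sauvagine sets the top of the activation scale.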
A general note: Changes in cAMP serve as a functional read-out for many G protein-coupled receptors.

In general, EC50 refers to the midpoint of the concentration-response curve. The low end stands for an effect from little substance, the high end for a need for much substance.

*1 amine or outer side, *2 acyl side, *3 side chain or, on linkers, in order; H or OH if unused. Where a SMILES comes first, the peptide text is derived from it. Side-chain parts run from the residue outwards. [ ]: non-standard residue; d: D form. The star is where a group is joined. γGlu = O=C(O)[C@H](CCC(=O)[*:2])N[*:1]; C14 diacid = O=C(O)CCCCCCCCCCCCC(=O)*; NMeI = CC[C@H](C)[C@H](NC)C(=O)O; Pentanoyl = CCCCC(=O)*; AEEA = NCCOCCOCC(=O)O; Aib = CC(C)(N)C(=O)O

Regarding `CC[C@H](C)[C@H](NC)C(=O)N[C@H](C(=O)N[C@@H](CC(C)C)C(=O)N[C@@H](CO)C(=O)N[C@@H](CC(C)C)C(=O)N[C@@H](CC(=O)O)C(=O)N[C@@H](C(=O)N1CCC[C@H]1C(=O)N[C@H](C(=O)N[C@@H](CCCCN)C(=O)N[C@@H](CC(C)C)C(=O)N[C@@H](CCCCNC(=O)CC[C@H](NC(=O)CCCCCCCCCCCCC(=O)O)C(=O)O)C(=O)N[C@@H](CCCCN)C(=O)N[C@H](C(=O)N[C@@H](CC(C)C)C(=O)N[C@@H](CC(C)C)C(=O)N[C@@H](CCC(=O)O)C(=O)N[C@@H](CCC(N)=O)C(=O)N[C@@H](CCC(=O)O)C(=O)N[C@@H](CCCCN)C(=O)N[C@@H](CCC(N)=O)C(=O)N[C@@H](CCCCN)C(=O)N[C@@H](C)C(=O)N[C@@H](CCC(N)=O)C(=O)N[C@@H](CCCNC(=N)N)C(=O)N[C@@H](CCC(=O)O)C(=O)N[C@@H](CCC(N)=O)C(=O)N[C@@H](C)C(=O)N[C@@H](CCC(=O)O)C(=O)N[C@H](C(=O)N[C@@H](CC(N)=O)C(=O)NC(C)(C)C(=O)N[C@@H](CCC(N)=O)C(=O)N[C@H](C(=O)N[C@@H](CC(C)C)C(=O)N[C@@H](C)C(=O)N[C@@H](CCC(N)=O)C(=O)N[C@H](C(N)=O)C(C)C)[C@@H](C)CC)[C@@H](C)O)[C@@H](C)CC)[C@@H](C)CC)C(C)C)C(C)C` [compound 176] (H-[NMeI]VLSLD[dV]PIKLK([γGlu-C14 diacid])KILLEQEKQKAQREQAETN[Aib]QILAQV-NH2), the EC50 on human CRF2a receptor stood at 0.00099 µM. In addition, at CFR1R receptor, the “Emax (% I)” value amounted to 8 % I and the EC50 was above 0.25 µM.
`CC[C@H](C)[C@H](NC)C(=O)N[C@H](C(=O)N[C@@H](CC(C)C)C(=O)N[C@@H](CO)C(=O)N[C@@H](CC(C)C)C(=O)N[C@@H](CC(=O)O)C(=O)N[C@@H](C(=O)N1CCC[C@H]1C(=O)N[C@H](C(=O)N[C@@H](CCCCN)C(=O)N[C@@H](CC(C)C)C(=O)N[C@@H](CCCCNC(=O)CC[C@H](NC(=O)CCCCCCCCCCCCC(=O)O)C(=O)O)C(=O)N[C@@H](CCCCN)C(=O)N[C@H](C(=O)N[C@@H](CC(C)C)C(=O)N[C@@H](CC(C)C)C(=O)N[C@@H](CCC(=O)O)C(=O)N[C@@H](CCC(N)=O)C(=O)N[C@@H](CCC(=O)O)C(=O)N[C@@H](CCCCN)C(=O)N[C@@H](CCC(N)=O)C(=O)N[C@@H](CCCCN)C(=O)NC(C)(C)C(=O)N[C@@H](CCC(N)=O)C(=O)N[C@@H](CCCNC(=N)N)C(=O)N[C@@H](CCC(=O)O)C(=O)N[C@@H](CCC(N)=O)C(=O)N[C@@H](C)C(=O)N[C@@H](CCC(=O)O)C(=O)N[C@H](C(=O)N[C@@H](CC(N)=O)C(=O)NC(C)(C)C(=O)N[C@@H](CCC(N)=O)C(=O)N[C@H](C(=O)N[C@@H](CC(C)C)C(=O)N[C@@H](C)C(=O)N[C@@H](CCC(N)=O)C(=O)N[C@H](C(N)=O)C(C)C)[C@@H](C)CC)[C@@H](C)O)[C@@H](C)CC)[C@@H](C)CC)C(C)C)C(C)C` [compound 177] (H-[NMeI]VLSLD[dV]PIKLK([γGlu-C14 diacid])KILLEQEKQK[Aib]QREQAETN[Aib]QILAQV-NH2) yielded an EC50 on human CRF2a receptor of 0.00086 µM. Also, at CFR1R receptor, the “Emax (% I)” value stood at 10 % I and the EC50 is above 0.25 µM.
Take `CC[C@H](C)[C@H](NC)C(=O)N[C@H](C(=O)N[C@@H](CC(C)C)C(=O)N[C@@H](CO)C(=O)N[C@@H](CC(C)C)C(=O)N[C@@H](CC(=O)O)C(=O)N[C@@H](C(=O)N1CCC[C@H]1C(=O)N[C@H](C(=O)N[C@@H](CCCCN)C(=O)N[C@@H](CC(C)C)C(=O)N[C@@H](CCCCNC(=O)COCCOCCNC(=O)COCCOCCNC(=O)CC[C@H](NC(=O)CCCCCCCCCCCCC(=O)O)C(=O)O)C(=O)N[C@@H](CCCCN)C(=O)N[C@H](C(=O)N[C@@H](CC(C)C)C(=O)N[C@@H](CC(C)C)C(=O)N[C@@H](CCC(=O)O)C(=O)N[C@@H](CCC(N)=O)C(=O)N[C@@H](CCC(=O)O)C(=O)N[C@@H](CCCCN)C(=O)N[C@@H](CCC(N)=O)C(=O)N[C@@H](CCCCN)C(=O)N[C@@H](CCCCN)C(=O)N[C@@H](CCC(N)=O)C(=O)N[C@@H](CCCNC(=N)N)C(=O)N[C@@H](CCC(=O)O)C(=O)N[C@@H](CCC(N)=O)C(=O)N[C@@H](C)C(=O)N[C@@H](CCC(=O)O)C(=O)N[C@H](C(=O)N[C@@H](CC(N)=O)C(=O)NC(C)(C)C(=O)N[C@@H](CCC(N)=O)C(=O)N[C@H](C(=O)N[C@@H](CC(C)C)C(=O)N[C@@H](C)C(=O)N[C@@H](CCC(N)=O)C(=O)N[C@H](C(N)=O)C(C)C)[C@@H](C)CC)[C@@H](C)O)[C@@H](C)CC)[C@@H](C)CC)C(C)C)C(C)C` [compound 178] (H-[NMeI]VLSLD[dV]PIKLK([AEEA-AEEA-γGlu-C14 diacid])KILLEQEKQKKQREQAETN[Aib]QILAQV-NH2): the half-maximal effective concentration (EC50) at human CRF2a receptor amounted to 0.0065 µM. At CFR1R receptor, the “Emax (% I)” value was found to be 1 % I and the EC50 is above 0.25 µM.
In the case of `CC[C@H](C)[C@H](NC)C(=O)N[C@H](C(=O)N[C@@H](CC(C)C)C(=O)N[C@@H](CO)C(=O)N[C@@H](CC(C)C)C(=O)N[C@@H](CC(=O)O)C(=O)N[C@@H](C(=O)N1CCC[C@H]1C(=O)N[C@H](C(=O)N[C@@H](CCCCN)C(=O)N[C@@H](CC(C)C)C(=O)N[C@@H](CCCCNC(=O)COCCOCCNC(=O)COCCOCCNC(=O)CC[C@H](NC(=O)CC[C@H](NC(=O)CCCCCCCCCCCCC(=O)O)C(=O)O)C(=O)O)C(=O)N[C@@H](CCCCN)C(=O)N[C@H](C(=O)N[C@@H](CC(C)C)C(=O)N[C@@H](CC(C)C)C(=O)N[C@@H](CCC(=O)O)C(=O)N[C@@H](CCC(N)=O)C(=O)N[C@@H](CCC(=O)O)C(=O)N[C@@H](CCCCN)C(=O)N[C@@H](CCC(N)=O)C(=O)N[C@@H](CCCCN)C(=O)N[C@@H](CCCCN)C(=O)N[C@@H](CCC(N)=O)C(=O)N[C@@H](CCCNC(=N)N)C(=O)N[C@@H](CCC(=O)O)C(=O)N[C@@H](CCC(N)=O)C(=O)N[C@@H](C)C(=O)N[C@@H](CCC(=O)O)C(=O)N[C@H](C(=O)N[C@@H](CC(N)=O)C(=O)NC(C)(C)C(=O)N[C@@H](CCC(N)=O)C(=O)N[C@H](C(=O)N[C@@H](CC(C)C)C(=O)N[C@@H](C)C(=O)N[C@@H](CCC(N)=O)C(=O)N[C@H](C(N)=O)C(C)C)[C@@H](C)CC)[C@@H](C)O)[C@@H](C)CC)[C@@H](C)CC)C(C)C)C(C)C` [compound 179] (H-[NMeI]VLSLD[dV]PIKLK([AEEA-AEEA-γGlu-γGlu-C14 diacid])KILLEQEKQKKQREQAETN[Aib]QILAQV-NH2), the EC50 on human CRF2a receptor is 0.0155 µM; at CFR1R receptor, above 0.25 µM. For the same molecule, the “Emax (% I)” value on CFR1R receptor is recorded as −4 % I.
In the same order, the values of `CCCCC(=O)N[C@H](C(=O)N[C@@H](CC(C)C)C(=O)N[C@@H](CO)C(=O)N[C@@H](CC(C)C)C(=O)N[C@@H](CC(=O)O)C(=O)N[C@@H](C(=O)N1CCC[C@H]1C(=O)N[C@H](C(=O)N[C@@H](CCCCN)C(=O)N[C@@H](CC(C)C)C(=O)N[C@@H](CCCCNC(=O)COCCOCCNC(=O)COCCOCCNC(=O)CC[C@H](NC(=O)CCCCCCCCCCCCC(=O)O)C(=O)O)C(=O)N[C@@H](CCCCN)C(=O)N[C@H](C(=O)N[C@@H](CC(C)C)C(=O)N[C@@H](CC(C)C)C(=O)N[C@@H](CCC(=O)O)C(=O)N[C@@H](CCC(N)=O)C(=O)N[C@@H](CCC(=O)O)C(=O)N[C@@H](CCCCN)C(=O)N[C@@H](CCC(N)=O)C(=O)N[C@@H](CCCCN)C(=O)N[C@@H](CCCCN)C(=O)N[C@@H](CCC(N)=O)C(=O)N[C@@H](CCCNC(=N)N)C(=O)N[C@@H](CCC(=O)O)C(=O)N[C@@H](CCC(N)=O)C(=O)N[C@@H](C)C(=O)N[C@@H](CCC(=O)O)C(=O)N[C@H](C(=O)N[C@@H](CC(N)=O)C(=O)NC(C)(C)C(=O)N[C@@H](CCC(N)=O)C(=O)N[C@H](C(=O)N[C@@H](CC(C)C)C(=O)N[C@@H](C)C(=O)N[C@@H](CCC(N)=O)C(=O)N[C@H](C(N)=O)C(C)C)[C@@H](C)CC)[C@@H](C)O)[C@@H](C)CC)[C@@H](C)CC)C(C)C)C(C)C` [compound 180] (Pentanoyl-VLSLD[dV]PIKLK([AEEA-AEEA-γGlu-C14 diacid])KILLEQEKQKKQREQAETN[Aib]QILAQV-NH2) are 0.0107 µM, above 0.25 µM and 2 % I.
